In ChEMBL document CHEMBL5537133, “Rational design and optimization of novel 4-methyl quinazoline derivatives as PI3K/HDAC dual inhibitors with benzamide as zinc binding moiety for the treatment of acute myeloid leukemia” (Eur J Med Chem, 2024):

Key:
MV4-11 [1] = test: Antiproliferative activity against human MV4-11 cells assessed as reduction in cell viability incubated for 72 hrs by CCK-8 assay; format: functional, cell-based; settings: MV4-11, 72 h
[2] = biological target: Phosphatidylinositol 4,5-bisphosphate 3-kinase catalytic subunit beta isoform (Homo sapiens, UniProt P42338); test: Inhibition of PI3Kbeta (unknown origin) using PIP2 as substrate incubated for 1 hr in presence of ATP by ADP-Glo assay
[3] = biological target: Phosphatidylinositol 4,5-bisphosphate 3-kinase catalytic subunit gamma isoform (Homo sapiens, UniProt P48736); test: Inhibition of PI3Kgamma (unknown origin) using PIP2 as substrate incubated for 1 hr in presence of ATP by ADP-Glo assay
[4] = biological target: Phosphatidylinositol 4,5-bisphosphate 3-kinase catalytic subunit delta isoform (Homo sapiens, UniProt O00329); test: Inhibition of PI3Kdelta (unknown origin) using PIP2 as substrate incubated for 1 hr in presence of ATP by ADP-Glo assay
[5] = biological target: Serine/threonine-protein kinase mTOR (Homo sapiens, UniProt P42345); test: Inhibition of N-terminal FLAG-tagged recombinant human mTOR (1362 to end residues) using ULight-4E-BP1 (Thr37/46) peptide as substrate incubated for 30 mins in presence of ATP by LANCE ultra assay
Histone deacetylase 2 = Histone deacetylase 2 (Homo sapiens, UniProt Q92769); test: Inhibition of C-terminal His6-FLAG-tagged human recombinant HDAC2 (1 to 488 residues) expressed in Sf9 cells using Ac-peptide as substrate preincubated for 15 mins followed by substrate addition and measured after 1 hr by plate reader analysis
Histone deacetylase 3 = Histone deacetylase 3 (Homo sapiens, UniProt O15379); test: Inhibition of HDAC3 (unknown origin)
Histone deacetylase 4 = Histone deacetylase 4 (Homo sapiens, UniProt P56524); test: Inhibition of N-terminal GST-tagged and C-terminal His-tagged human HDAC4 (627 to 1084 end residues) expressed in baculovirus infected Sf9 cells using Ac-peptide as substrate incubated for 1 hr by plate reader analysis
[6] = biological target: Protein deacetylase HDAC6 (Homo sapiens, UniProt Q9UBN7); test: Inhibition of HDAC6 (unknown origin)
Histone deacetylase 8 = Histone deacetylase 8 (Homo sapiens, UniProt Q9BY41); test: Inhibition of C-terminal His-tagged human recombinant HDAC8 (1 to 377 end residues) expressed in Sf9 cells using Ac-peptide as substrate incubated for 1 hr by plate reader analysis
Histone deacetylase 11 = Histone deacetylase 11 (Homo sapiens, UniProt Q96DB2); test: Inhibition of human HDAC11 (1 to 347 end residues) expressed in Sf9 cells using Ac-peptide as substrate incubated for 1 hr by plate reader analysis
NB-4 = test: Antiproliferative activity against human NB4 cells assessed as reduction in cell viability incubated for 72 hrs by CCK-8 assay; format: functional, cell-based; settings: NB-4, 72 h
HL-60 = test: Antiproliferative activity against human HL-60 cells assessed as reduction in cell viability incubated for 72 hrs by CCK-8 assay; format: functional, cell-based; settings: HL-60, 72 h
DOHH-2 = test: Antiproliferative activity against human DOHH-2 cells assessed as reduction in cell viability incubated for 72 hrs by CCK-8 assay; format: functional, cell-based; settings: DOHH-2, 72 h
Ramos = test: Antiproliferative activity against human Ramos cells assessed as reduction in cell viability incubated for 72 hrs by CCK-8 assay
Raji = test: Antiproliferative activity against human Raji cells assessed as reduction in cell viability incubated for 72 hrs by CCK-8 assay; format: functional, cell-based
[7] = Antiproliferative activity against human MINO cells assessed as reduction in cell viability incubated for 72 hrs by CCK-8 assay
L1210 = test: Antiproliferative activity against mouse L1210 cells assessed as reduction in cell viability incubated for 72 hrs by CCK-8 assay; format: functional, cell-based; settings: L1210, 72 h
[8] = tested on: Friend leukemia cell line; test: Antiproliferative activity against mouse Friend leukemia cell line assessed as reduction in cell viability incubated for 72 hrs by CCK-8 assay; format: functional, cell-based
BaF3 = test: Antiproliferative activity against mouse BaF3 cells assessed as reduction in cell viability incubated for 72 hrs by CCK-8 assay; format: functional, cell-based; settings: BaF3, 72 h
EL4 = test: Antiproliferative activity against mouse EL4 cells assessed as reduction in cell viability incubated for 72 hrs by CCK-8 assay; format: functional, cell-based; settings: EL4, 72 h
[9] = Terminal half life in ICR mouse at 6 mg/kg, iv measured after 24 hrs by LC-MS/MS analysis; format: ADME, organism-based; settings: in vivo
[10] = Terminal half life in ICR mouse at 60 mg/kg, po measured after 24 hrs by LC-MS/MS analysis; format: ADME, organism-based; settings: in vivo, read-out: beta t1/2 (converted)
[11] = Tmax in ICR mouse at 60 mg/kg, po measured after 24 hrs by LC-MS/MS analysis; format: ADME, organism-based; settings: in vivo
[12] = Cmax in ICR mouse at 6 mg/kg, iv measured after 24 hrs by LC-MS/MS analysis; format: ADME, organism-based; settings: in vivo
[13] = Cmax in ICR mouse at 60 mg/kg, po measured after 24 hrs by LC-MS/MS analysis; format: ADME, organism-based; settings: in vivo
[14] = AUC(0 to t) in ICR mouse at 6 mg/kg, iv measured after 24 hrs by LC-MS/MS analysis; format: ADME, organism-based; settings: in vivo
[15] = AUC(0 to t) in ICR mouse at 60 mg/kg, po measured after 24 hrs by LC-MS/MS analysis; format: ADME, organism-based; settings: in vivo
[16] = AUC(0 to infinity) in ICR mouse at 6 mg/kg, iv measured after 24 hrs by LC-MS/MS analysis; format: ADME, organism-based; settings: in vivo
[17] = AUC(0 to infinity) in ICR mouse at 60 mg/kg, po measured after 24 hrs by LC-MS/MS analysis; format: ADME, organism-based; settings: in vivo
MV4-11 [18] = test: Antitumor activity against human MV4-11 cells xenografted in BALB/c nude mouse assessed as tumor growth inhibition at 10 mg/kg, ip administered once daily for 14 days relative to control; format: functional; settings: MV4-11, 336 h, time 14 day, read-out: TGI
MV4-11 [19] = test: Antitumor activity against human MV4-11 cells xenografted in BALB/c nude mouse assessed as tumor growth inhibition at 20 mg/kg, ip administered once daily for 14 days relative to control; format: functional; settings: MV4-11, 336 h, time 14 day, read-out: TGI
MV4-11 [20] = test: Antitumor activity against human MV4-11 cells xenografted in BALB/c nude mouse assessed as tumor growth inhibition at 60 mg/kg, po administered once daily for 14 days relative to control; format: functional; settings: MV4-11, 336 h, time 14 day, read-out: TGI
[21] = Toxicity in BALB/c nude mouse xenografted with human MV4-11 cells assessed as change in body weight at 10 to 20 mg/kg, ip administered only daily for 14 days and measured twice a week; format: organism-based; settings: in vivo, 336 h, dose 10-20 mg/kg, time 14 day
[22] = Toxicity in BALB/c nude mouse xenografted with human MV4-11 cells assessed as change in body weight at 60 mg/kg, po administered only daily for 14 days and measured twice a week; format: organism-based; settings: in vivo, 336 h, time 14 day
[23] = biological target: Phosphatidylinositol 4,5-bisphosphate 3-kinase catalytic subunit alpha isoform (Homo sapiens, UniProt P42336)
Description: Inhibition of PI3Kalpha (unknown origin) using PIP2 as substrate incubated for 1 hr in presence of ATP by ADP-Glo assay

Histone deacetylase 1 = Histone deacetylase 1 (Homo sapiens, UniProt Q13547)
Description: Inhibition of C-terminal 6His-FLAG-tagged human recombinant HDAC1 (1 to 482 residues) expressed in Sf9 cells using Ac-peptide as substrate preincubated for 15 mins followed by substrate addition and measured after 1 hr by plate reader analysis

[24] = Apparent volume of distribution in ICR mouse at 6 mg/kg, iv measured after 24 hrs by LC-MS/MS analysis; format: ADME, organism-based; settings: in vivo
[25] = Oral bioavailability in ICR mouse at 60 mg/kg measured after 24 hrs by LC-MS/MS analysis; format: ADME, organism-based; settings: in vivo
MV4-11 [26] = test: Antiproliferative activity against human MV4-11 cells assessed as reduction in cell viability incubated for 72 hrs in presence of chidamide by CCK-8 assay; format: functional, cell-based; settings: MV4-11, 72 h

Protein deacetylase HDAC6, sequence (Q9UBN7 whole entry): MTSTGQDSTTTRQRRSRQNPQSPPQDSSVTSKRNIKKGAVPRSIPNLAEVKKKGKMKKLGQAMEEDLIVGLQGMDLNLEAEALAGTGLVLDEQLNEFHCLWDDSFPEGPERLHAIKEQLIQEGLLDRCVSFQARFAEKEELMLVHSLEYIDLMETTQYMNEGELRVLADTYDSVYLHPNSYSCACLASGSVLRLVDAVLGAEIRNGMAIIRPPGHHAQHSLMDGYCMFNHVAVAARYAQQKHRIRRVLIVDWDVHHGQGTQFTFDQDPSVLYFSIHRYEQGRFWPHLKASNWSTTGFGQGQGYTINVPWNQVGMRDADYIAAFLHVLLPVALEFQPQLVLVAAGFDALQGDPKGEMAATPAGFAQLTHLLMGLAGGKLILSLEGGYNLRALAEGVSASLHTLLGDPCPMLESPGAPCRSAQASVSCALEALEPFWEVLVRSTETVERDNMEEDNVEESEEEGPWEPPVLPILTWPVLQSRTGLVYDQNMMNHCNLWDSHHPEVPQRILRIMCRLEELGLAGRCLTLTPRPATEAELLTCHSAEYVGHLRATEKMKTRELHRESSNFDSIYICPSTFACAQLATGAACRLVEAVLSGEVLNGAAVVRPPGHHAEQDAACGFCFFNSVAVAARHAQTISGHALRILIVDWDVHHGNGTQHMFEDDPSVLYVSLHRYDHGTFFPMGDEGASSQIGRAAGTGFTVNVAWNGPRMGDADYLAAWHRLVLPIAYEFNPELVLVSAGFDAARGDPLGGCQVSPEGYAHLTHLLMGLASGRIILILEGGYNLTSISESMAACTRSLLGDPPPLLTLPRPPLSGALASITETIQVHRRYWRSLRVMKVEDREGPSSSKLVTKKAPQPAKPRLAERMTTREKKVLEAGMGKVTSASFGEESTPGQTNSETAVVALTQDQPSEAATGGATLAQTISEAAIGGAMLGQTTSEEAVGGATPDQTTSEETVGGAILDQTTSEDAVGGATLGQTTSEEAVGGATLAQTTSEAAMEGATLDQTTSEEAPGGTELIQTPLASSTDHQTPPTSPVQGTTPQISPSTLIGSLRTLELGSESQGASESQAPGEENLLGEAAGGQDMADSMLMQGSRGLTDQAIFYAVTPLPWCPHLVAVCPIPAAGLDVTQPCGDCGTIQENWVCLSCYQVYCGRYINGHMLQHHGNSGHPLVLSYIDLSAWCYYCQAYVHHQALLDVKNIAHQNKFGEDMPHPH
Histone deacetylase 11, sequence (Q96DB2 whole entry): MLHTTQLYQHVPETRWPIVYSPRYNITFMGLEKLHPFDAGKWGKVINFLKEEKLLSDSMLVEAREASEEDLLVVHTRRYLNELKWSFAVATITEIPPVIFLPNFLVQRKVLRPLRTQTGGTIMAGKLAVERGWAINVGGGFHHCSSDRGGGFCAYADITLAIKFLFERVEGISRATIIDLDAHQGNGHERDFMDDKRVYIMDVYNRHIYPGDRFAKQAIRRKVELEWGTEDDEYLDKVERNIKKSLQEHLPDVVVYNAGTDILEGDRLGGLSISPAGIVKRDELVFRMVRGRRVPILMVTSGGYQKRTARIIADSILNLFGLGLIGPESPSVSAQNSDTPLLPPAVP
Phosphatidylinositol 4,5-bisphosphate 3-kinase catalytic subunit delta isoform, sequence (O00329 whole entry, canonical isoform): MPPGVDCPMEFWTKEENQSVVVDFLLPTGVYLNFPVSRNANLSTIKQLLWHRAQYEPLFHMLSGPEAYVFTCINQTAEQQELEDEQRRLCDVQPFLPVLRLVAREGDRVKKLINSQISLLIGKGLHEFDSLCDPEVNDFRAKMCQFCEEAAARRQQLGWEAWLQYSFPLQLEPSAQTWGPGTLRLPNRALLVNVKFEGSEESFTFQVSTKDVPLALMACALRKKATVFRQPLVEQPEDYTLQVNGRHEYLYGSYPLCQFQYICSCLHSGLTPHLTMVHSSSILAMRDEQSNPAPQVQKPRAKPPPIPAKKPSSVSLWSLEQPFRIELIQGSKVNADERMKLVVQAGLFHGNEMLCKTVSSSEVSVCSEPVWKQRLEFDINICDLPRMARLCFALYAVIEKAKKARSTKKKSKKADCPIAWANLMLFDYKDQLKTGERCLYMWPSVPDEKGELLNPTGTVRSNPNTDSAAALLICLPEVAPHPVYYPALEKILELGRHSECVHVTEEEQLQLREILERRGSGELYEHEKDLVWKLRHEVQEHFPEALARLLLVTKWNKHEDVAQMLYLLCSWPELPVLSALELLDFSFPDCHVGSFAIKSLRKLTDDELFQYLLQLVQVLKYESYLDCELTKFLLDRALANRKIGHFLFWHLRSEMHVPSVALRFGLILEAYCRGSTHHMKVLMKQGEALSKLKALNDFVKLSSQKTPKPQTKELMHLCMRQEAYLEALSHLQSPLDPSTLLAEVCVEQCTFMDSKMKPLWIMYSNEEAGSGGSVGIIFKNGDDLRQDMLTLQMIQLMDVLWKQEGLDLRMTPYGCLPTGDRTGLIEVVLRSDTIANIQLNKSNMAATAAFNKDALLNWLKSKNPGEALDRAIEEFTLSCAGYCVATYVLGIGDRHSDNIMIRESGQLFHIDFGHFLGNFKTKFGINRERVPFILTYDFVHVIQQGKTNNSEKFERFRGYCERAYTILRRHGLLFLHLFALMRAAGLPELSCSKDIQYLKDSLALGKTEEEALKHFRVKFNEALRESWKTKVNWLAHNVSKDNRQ
Histone deacetylase 3, sequence (O15379 whole entry): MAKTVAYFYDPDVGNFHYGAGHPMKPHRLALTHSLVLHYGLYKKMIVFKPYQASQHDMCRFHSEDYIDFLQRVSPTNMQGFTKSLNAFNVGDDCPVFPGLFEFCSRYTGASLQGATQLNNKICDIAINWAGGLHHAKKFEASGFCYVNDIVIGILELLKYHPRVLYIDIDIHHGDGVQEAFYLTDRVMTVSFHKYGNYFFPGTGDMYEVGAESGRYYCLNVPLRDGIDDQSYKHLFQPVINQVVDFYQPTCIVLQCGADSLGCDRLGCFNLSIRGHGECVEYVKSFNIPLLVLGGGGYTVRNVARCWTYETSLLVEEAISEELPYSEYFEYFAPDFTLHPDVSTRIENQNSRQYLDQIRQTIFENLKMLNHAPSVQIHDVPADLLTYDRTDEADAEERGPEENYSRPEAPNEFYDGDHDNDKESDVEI
Phosphatidylinositol 4,5-bisphosphate 3-kinase catalytic subunit gamma isoform, sequence (P48736 whole entry, canonical isoform): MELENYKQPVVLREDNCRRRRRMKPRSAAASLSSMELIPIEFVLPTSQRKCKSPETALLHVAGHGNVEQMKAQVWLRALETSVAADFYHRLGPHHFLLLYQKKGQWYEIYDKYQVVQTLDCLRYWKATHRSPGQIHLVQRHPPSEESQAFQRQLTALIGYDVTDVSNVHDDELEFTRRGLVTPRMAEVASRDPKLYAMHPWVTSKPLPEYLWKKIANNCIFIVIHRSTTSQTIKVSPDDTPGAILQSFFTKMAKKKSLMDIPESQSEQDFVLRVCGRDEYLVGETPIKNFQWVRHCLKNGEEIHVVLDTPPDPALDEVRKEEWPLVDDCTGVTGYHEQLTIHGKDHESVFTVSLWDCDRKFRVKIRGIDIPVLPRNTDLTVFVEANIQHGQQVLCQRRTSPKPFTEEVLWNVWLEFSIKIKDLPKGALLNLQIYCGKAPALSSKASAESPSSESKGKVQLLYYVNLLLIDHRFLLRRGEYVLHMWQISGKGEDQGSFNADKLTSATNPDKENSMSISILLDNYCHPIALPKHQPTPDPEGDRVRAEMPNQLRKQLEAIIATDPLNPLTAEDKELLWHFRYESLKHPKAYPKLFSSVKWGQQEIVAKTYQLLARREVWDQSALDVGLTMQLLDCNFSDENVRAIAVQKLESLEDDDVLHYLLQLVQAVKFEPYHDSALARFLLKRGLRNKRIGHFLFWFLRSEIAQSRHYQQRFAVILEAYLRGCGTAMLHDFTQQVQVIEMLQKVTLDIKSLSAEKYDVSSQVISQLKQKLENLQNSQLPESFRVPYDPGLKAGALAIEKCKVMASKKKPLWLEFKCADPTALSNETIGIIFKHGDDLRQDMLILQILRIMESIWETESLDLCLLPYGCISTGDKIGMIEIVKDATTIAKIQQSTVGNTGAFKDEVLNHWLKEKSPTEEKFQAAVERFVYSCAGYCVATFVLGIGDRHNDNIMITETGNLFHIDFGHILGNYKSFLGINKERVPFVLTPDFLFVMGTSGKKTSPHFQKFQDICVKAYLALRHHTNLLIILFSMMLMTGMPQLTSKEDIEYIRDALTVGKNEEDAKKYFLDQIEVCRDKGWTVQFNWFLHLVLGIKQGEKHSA
Histone deacetylase 8, sequence (Q9BY41 whole entry): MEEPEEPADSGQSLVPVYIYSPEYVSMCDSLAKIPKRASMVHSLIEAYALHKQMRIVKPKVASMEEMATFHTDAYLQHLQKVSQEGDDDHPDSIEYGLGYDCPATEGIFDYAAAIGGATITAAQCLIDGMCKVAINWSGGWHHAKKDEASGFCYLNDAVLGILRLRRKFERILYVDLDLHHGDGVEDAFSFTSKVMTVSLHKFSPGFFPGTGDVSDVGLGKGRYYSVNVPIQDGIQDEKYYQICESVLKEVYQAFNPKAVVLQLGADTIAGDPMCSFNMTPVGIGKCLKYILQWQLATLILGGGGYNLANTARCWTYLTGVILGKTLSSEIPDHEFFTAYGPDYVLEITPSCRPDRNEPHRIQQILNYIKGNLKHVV
Histone deacetylase 2, sequence (Q92769 whole entry, the tested form may be a part): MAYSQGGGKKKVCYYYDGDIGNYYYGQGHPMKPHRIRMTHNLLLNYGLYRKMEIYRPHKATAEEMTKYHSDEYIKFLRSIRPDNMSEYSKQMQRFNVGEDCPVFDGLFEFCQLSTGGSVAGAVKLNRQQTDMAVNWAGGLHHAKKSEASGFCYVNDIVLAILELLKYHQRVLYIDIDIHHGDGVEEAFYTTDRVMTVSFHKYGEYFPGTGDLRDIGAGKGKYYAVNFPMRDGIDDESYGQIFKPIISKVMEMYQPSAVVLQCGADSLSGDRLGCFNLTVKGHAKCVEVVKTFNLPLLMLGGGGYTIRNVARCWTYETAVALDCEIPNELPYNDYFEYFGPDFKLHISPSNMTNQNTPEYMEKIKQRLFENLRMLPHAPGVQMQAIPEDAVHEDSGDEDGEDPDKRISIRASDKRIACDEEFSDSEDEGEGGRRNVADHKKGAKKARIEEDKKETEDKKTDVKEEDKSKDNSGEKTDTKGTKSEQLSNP

Structure (SMILES)	IC50 (MV4-11 [1])	IC50 [2]	IC50 [3]	IC50 [4]	IC50 [5]	IC50 (Histone deacetylase 2)	IC50 (Histone deacetylase 3)	IC50 (Histone deacetylase 4)	IC50 [6]	IC50 (Histone deacetylase 8)	IC50 (Histone deacetylase 11)	IC50 (NB-4)	IC50 (HL-60)	IC50 (DOHH-2)	IC50 (Ramos)	IC50 (Raji)	IC50 [7]	IC50 (L1210)	IC50 [8]	IC50 (BaF3)	other results
COc1ncc(-c2cc(OCCCCCCC(=O)Nc3ccccc3N)c3ncnc(C)c3c2)cc1NS(=O)(=O)c1ccc(F)cc1F	4 nM	0.66 nM	1.8 nM	1.9 nM	3.4 nM	181 nM	899 nM	> 10000 nM	> 10000 nM	> 10000 nM	> 10000 nM	40 nM	210 nM	5400 nM	4400 nM	6300 nM	5400 nM	140 nM	350 nM	130 nM	IC50 (EL4): 560 nM; beta t1/2 [9]: 2.3 h; half-life [10]: 1.38 h; Tmax [11]: 0.52 h; Cmax [12]: 8310 ng/mL; Cmax [13]: 3780 ng/mL; AUC(0-t) at 24 h [14]: 1580 ng·h/mL; AUC(0-t) at 24 h [15]: 5020 ng·h/mL; AUC [16]: 1605 ng·h/mL; AUC ([17]; po, 60 mg/kg, 24 h): 5042 ng·h/mL; inhibition in vivo at 10 mg/kg (MV4-11 [18]): 53.6%; inhibition in vivo at 20 mg/kg (MV4-11 [19]): 75%; inhibition in vivo at 60 mg/kg (MV4-11 [20]): 53.6%; Activity [21]: Non-Toxic; Activity [22]: Non-Toxic; IC50 [23]: 0.23 nM; IC50 (Histone deacetylase 1): 172 nM
COc1ncc(-c2cc(OCCCc3ccc(C(=O)Nc4ccccc4N)cc3)c3ncnc(C)c3c2)cc1NS(=O)(=O)c1ccc(F)cc1F	50 nM	0.62 nM	15 nM	1.8 nM	9.5 nM	84.5 nM	6.6 nM	> 10000 nM	> 10000 nM	> 10000 nM	3520 nM	370 nM	330 nM	5300 nM	5000 nM	4600 nM	6600 nM	850 nM	320 nM	80 nM	IC50 (EL4): 840 nM; beta t1/2 [9]: 2.43 h; half-life [10]: 4.46 h; Tmax [11]: 0.25 h; Cmax [13]: 306 ng/mL; AUC(0-t) at 24 h [14]: 4880 ng·h/mL; AUC(0-t) at 24 h [15]: 1230 ng·h/mL; AUC [16]: 4930 ng·h/mL; AUC(0-inf) ([17]; ICR): 1710 ng·h/mL; Vz [24]: 4.27 L/kg; bioavailability [25]: 3.5%; inhibition in vivo at 10 mg/kg (MV4-11 [18]): 50%; inhibition in vivo at 20 mg/kg (MV4-11 [19]): 60.7%; inhibition in vivo at 60 mg/kg (MV4-11 [20]): 64.3%; Activity [21]: Non-Toxic; Activity [22]: Non-Toxic; IC50 [23]: 0.26 nM; IC50 (Histone deacetylase 1): 28 nM
Cc1nc(NC(=O)N2CCC[C@H]2C(N)=O)sc1-c1ccnc(C(C)(C)C(F)(F)F)c1 [ALPELISIB]	3500 nM	–	–	–	–	–	–	–	–	–	–	–	–	–	–	–	–	–	–	–	IC50 (MV4-11 [26]): 190 nM
